According to publication PMC11524583, “Neurons enhance blood–brain barrier function via upregulating claudin-5 and VE-cadherin expression due to glial cell line-derived neurotrophic factor secretion” (eLife, 2024):
“And” between values parts separate entries of the source, which are not always exact repeats. Identical values can stand only once. “Also recorded” adds a separate entry of the source. Like-named read-outs stand apart in the source and are kept apart here. Marks after values point to notes of the source that are not given here.

Assays:
[1] = system: hCMEC/D3 mono-culture BBB model
[2] = system: triple co-culture BBB model (hCMEC/D3, U251 and SH-SY5Y cells)
in vitro [3] = details: human
in vitro [4] = details: human; remark: listed apart in the source
[5] = unbound fraction in brain, cited from earlier work
[6] = in situ brain perfusion in rodents, published permeability multiplied by VSA 150 cm^2/g, cited from earlier work
claudin-5 = assay: Western blot of claudin-5 expression in hCMEC/D3 cells; format: cell-based, Homo sapiens
Protocol: (§1) Whole-cell and tissue lysates, nucleoprotein, and cytoplasmic protein were prepared using RIPA Lysis Buffer (Beyotime, Shanghai, China) as the described method ([Wu et al., 2021]). Proteins were separated through sodium dodecyl sulfate–polyacrylamide gel electrophoresis and transferred onto nitrocellulose or polyvinylidene difluoride membranes. The membranes were blocked with 5% skim milk and incubated with corresponding primary antibodies at 4°C overnight. After being washed with Tris-buffered saline Tween buffer, the membranes were incubated with secondary antibodies (Cell Signaling Technology, MA, USA) at 1:3000 dilution: Anti-mouse IgG, HRP-linked Antibody (#7076), Anti-rabbit IgG, HRP-linked Antibody (#7074). Protein levels were visualized using a highly sensitive ECL western blotting substrate and a gel imaging system (Tanon Science & Technology, Shanghai, China).
(§2) CM of U251 cells (U-CM), SH-SY5Y cells (S-CM), or co-culture of U251 and SH-SY5Y cells (US-CM) was prepared. U251 cells were seeded at the top of the insert membrane and suspended on 6-well plates seeded with differentiated SH-SY5Y cells to co-culture U251 cells with SH-SY5Y cells. The medium was collected every 24 hr. The CMs were subsequently used for hCMEC/D3 cell culture after filtrating with 0.2 μm filters for 144 hr. The levels of GDNF, bFGF, IGF-1, and TGF-β in CMs were measured using corresponding ELISA kits according to the manufacturers’ instructions.
(§3) Exogenous and endogenous GDNF in the medium was neutralized with anti-GDNF antibody (#AF-212-NA, R&D system, Minneapolis, MN, USA). 0.25, 0.5, and 1.0 μg/ml anti-GDNF antibody was added into the US-CM or medium containing 200 pg/ml GDNF, and then the medium was preincubated at 4°C for 1 hr. The hCMEC/D3 cells were incubated with 200 pg/ml GDNF or US-CM containing anti-GDNF antibody or not for 6 days, and then cell lysate was collected for western blot. The medium was replaced every 24 hr.
(§4) Here, hCMEC/D3 cells were plated in the plates or culture dishes at 6 × 10^4 cells/cm^2 and transfected with 10 nM of negative control or human FOXO1, ETS1, and CDH5 siRNA (Tsingke Biotechnology, Beijing, China) for 12 hr using Lipofectamine 3000 (Invitrogen, Carlsbad, CA, USA) reagent according to the manufacturer’s instructions. Cells were then incubated with a medium containing GDNF for 72 hr.
The plasmids encoding FOXO1 (EX-Z7404-M02) were constructed by GeneCopoeia (Rockville, MD, USA). The hCMEC/D3 cells were plated in plates or dishes at 6 × 10^4 cells/cm^2. They were subsequently transfected with 1 µg of negative control or plasmids encoding FOXO1 6 hr using Lipofectamine 3000 reagent according to the manufacturer’s instructions. Transfected cells were then incubated with the medium containing GDNF for 72 hr.

VE-cadherin = assay: Western blot of VE-cadherin expression in hCMEC/D3 cells; format: cell-based, Homo sapiens
Protocol: as §1, §2, §3, §4

hCMEC/D3 cells = assay: EdU incorporation assay; format: cell-based, Homo sapiens; details: for EdU incorporation, EdU + fraction / EdU incorporation, EdU − fraction: 6 days
Protocol: The cells were incubated with medium containing 10 μM Edu for 2 hr. […] The EdU incorporation assay was measured using the BeyoClick EdU Cell Proliferation Kit (Beyotime Biotechnology, Shanghai, China) according to the manufacturer’s instructions. The samples were determined on the FACSCelesta flow cytometer (Becton, Dickins on and Company, USA), and data were analyzed by Flowjo 10.4 software.

[7] = system: triple co-culture BBB model (hCMEC/D3, U251 and SH-SY5Y cells); assay: In vitro BBB permeability study (Papp), triple co-culture BBB model
[8] = system: hCMEC/D3 mono-culture BBB model; assay: In vitro BBB permeability study (Papp), hCMEC/D3 mono-culture BBB model
[9] = system: hCMEC/D3 mono-culture BBB model; assay: TEER of hCMEC/D3 mono-culture BBB model; format: cell-based, Homo sapiens; details: hCMEC/D3 mono-culture, 200 pg/ml GDNF, day 6; 3 μM SPP-86 or 5 μM PP2
[10] = system: triple co-culture BBB model (hCMEC/D3, U251 and SH-SY5Y cells); assay: TEER of triple co-culture BBB model; format: cell-based, Homo sapiens; details: for TEER: Figure 2Q, group Triple+SPP, individual replicates, listed as SPP
Protocol: The establishment process of the triple co-culture model is illustrated in Figure 9. SH-SY5Y cells were seeded at a density of 4.5 × 10^4 cells/cm^2 in plates and differentiated with 10 μM retinoic acid (Sigma-Aldrich, St. Louis, MO, USA) for 72 hr. The differentiated SH-SY5Y cells were cultured in the fresh DMEM/F12 medium containing 10% FBS. U251 cells were seeded at 2 × 10^4 cells/cm^2 on the bottom of Transwell inserts (PET, 0.4 µm pore size, SPL Life Sciences, Pocheon, Korea) coated with rat-tail collagen (Corning Inc, Corning, NY, USA). Next, the inserts were suspended in plate wells containing the culture medium after 5 hr of incubation. After 24 hr of incubation, hCMEC/D3 cells were seeded on the apical side of the inserts at 3 × 10^4 cells/cm^2 and cultured for another 48 hr. Then, the inserts seeded with U251 and hCMEC/D3 cells were suspended in plates seeded with differentiated SH-SY5Y cells and co-cultured for another 6 days. The culture medium was replaced every 24 hr. TEER was periodically measured using a Millicell-ERS (MERS00002) instrument (Millipore, Billerica MA, USA) to monitor cell confluence and development of TJs.

[11] = hCMEC/D3 cells incubated with conditioned medium or neurotrophic factor vs normal medium
[12] = hCMEC/D3 cells, 200 pg/ml GDNF, 3 μM SPP-86, 5 μM PP2, 3 μM LY294002, 2 μM U0126, 5 μM SP600125, 2 μM SB203580, anti-GDNF antibody 0.25, 0.5, 1.0 μg/ml
[13] = hCMEC/D3 cells, US-CM, 3 μM SPP-86, 5 μM PP2, 3 μM LY294002, 2 μM U0126, anti-GDNF antibody 0.25, 0.5, 1.0 μg/ml

Compound	PSPre, Mono ([1]; human)	PS ([1]; human, 30 min) [µL/min/g]	PS ([2]; human, 30 min) [µL/min/g]	Papp A→B at 30 min (in vitro [3]; Papp, Mono) [×10⁻⁶ cm/s]	Papp A→B at 30 min (in vitro [4]; Papp, Triple) [×10⁻⁶ cm/s]	fu, brain ([5]; ref Summerfield et al., 2007)	PSObs ([6]; ref Summerfield et al., 2007)	Papp A→B at 30 min (in vitro [3]; Papp Mean) [×10⁻⁶ cm/s]	further results
CN1CCN2c3ncccc3Cc3ccccc3C2C1 (centres unmarked) [Mirtazapine]	2637.00 µL/min/g	2637.00	2009.25	23.4 ± 0.44	17.9 ± 0.21	0.08^†	1912.50^† μl/min/g	–	–
NC(=O)N1c2ccccc2C=Cc2ccccc21 [Carbamazepine]	2666.89 µL/min/g	2666.89	908.69	34.4 ± 1.26	11.7 ± 0.15	–	959.40^† μl/min/g	–	fu, brain ([5]; ref Maurer et al., 2005): 0.116^¶
bFGF: basic fibroblast growth factor, recombinant protein	–	–	–	–	–	–	–	–	claudin-5 expression (claudin-5; [11]): without affecting; VE-cadherin expression (VE-cadherin; [11]): without affecting; EdU incorporation, EdU + fraction (hCMEC/D3 cells; bFGF 6 ng/mL): 21.1; EdU incorporation, EdU − fraction (hCMEC/D3 cells; bFGF 6 ng/mL): 78.9; EdU incorporation, EdU + fraction (hCMEC/D3 cells; bFGF 20 ng/mL): 28.3; EdU incorporation, EdU − fraction (hCMEC/D3 cells; bFGF 20 ng/mL): 71.7; EdU incorporation, EdU + fraction (hCMEC/D3 cells; bFGF 60 ng/mL): 31.0; EdU incorporation, EdU − fraction (hCMEC/D3 cells; bFGF 60 ng/mL): 69.0; cell proliferation (hCMEC/D3 cells; bFGF (6, 20, and 60 ng/ml) for 6 days, EdU incorporation and cell viability): increased cell proliferation
CN1CCN(C2=Nc3cc(Cl)ccc3Nc3ccccc32)CC1 [Clozapine]	25,052.57 μl/min/g	25052.57	8272.72	39 ± 0.54	12.9 ± 2.06	–	–	–	Papp A→B at 30 min (in vitro [3]; Papp (individual replicate)): 38.9 ×10⁻⁶ cm/s; fu, brain ([5]; ref Bhyrapuneni et al., 2018): 0.0056; fu, brain ([5]; ref Cremers et al., 2012): 0.014^**
NC12CC3CC(CC(C3)C1)C2 [Amantadine]	310.22 µL/min/g	310.22	165.23	6.84 ± 0.95	3.64 ± 0.26	–	116.10^† μl/min/g	–	Papp A→B at 30 min (in vitro [4]; Papp (individual replicate)): 3.04 ×10⁻⁶ cm/s; fu, brain ([5]; ref Esaki et al., 2019): 0.1985^*
CN(C)CCC=C1c2ccccc2COc2ccccc21 [Doxepin]	6076.80 µL/min/g	6076.80	3837.60	16.9 ± 1.08	–	0.025^†	2192.40^† μl/min/g	16.9	–
CCN(CC)CCNC(=O)c1cc(Cl)c(N)cc1OC [Metoclopramide]	348.66 µL/min/g	348.66	163.41	14.1 ± 1.44	–	0.365^†	125.10^† μl/min/g	14.1	–
CN(C)CCC=C1c2ccccc2CCc2ccccc21 [Amitriptyline]	13,716.00 μl/min/g	13716.00	13149.00	15.2 ± 0.64	14.6 ± 0.27	–	–	15.2	PSPre, Triple ([2]; human): 13,149.00 μl/min/g; Papp A→B at 30 min (in vitro [3]; Papp (individual replicate)): 16.6 ×10⁻⁶ cm/s; Papp A→B at 30 min (in vitro [4]; Papp (individual replicate)): 14 ×10⁻⁶ cm/s; Papp A→B at 30 min (in vitro [4]; Papp Mean): 14.6 ×10⁻⁶ cm/s; fu, brain ([5]; ref Fridén et al., 2011): 0.01^‡; fu, brain ([5]; ref Sánchez-Dengra et al., 2021): 0.002; fu, brain ([5]; ref Weber et al., 2013): 0.0071; PSObs ([6]; ref Avdeef and Sun, 2011): 4608.00^*** μl/min/g
CC(NC(C)(C)C)C(=O)c1cccc(Cl)c1 (centres unmarked) [Buproprion]	–	–	–	–	–	–	–	–	PS [1]: 1139.58 µL/min/g; PS [2]: 850.58 µL/min/g; Papp A→B ([7]; read-out: Papp Mean, Triple co-culture BBB model, mean of 4 replicates): 11.3 ×10⁻⁶ cm/s; Papp A→B ([8]; read-out: Papp Mean, Mono-culture BBB Model, mean of 4 replicates): 15.2 ×10⁻⁶ cm/s
CC(C)n1nc(C#Cc2ccccc2)c2c(N)ncnc21 [SPP-86]	–	–	–	–	–	–	–	–	GDNF-increased TEER values, effect of inhibitor [9]: almost abolished; TEER ([10]; Day3): 56.76 Ω·cm2 and 57.75 Ω·cm2 and 55.77 Ω·cm2 and 59.4 Ω·cm2; TEER ([10]; Day4): 63.03 Ω·cm2 and 62.37 Ω·cm2 and 61.38 Ω·cm2 and 59.4 Ω·cm2; TEER ([10]; Day5): 71.94 Ω·cm2 and 75.24 Ω·cm2 and 74.25 Ω·cm2 and 72.27 Ω·cm2; TEER ([10]; Day6): 75.24 Ω·cm2 and 76.56 Ω·cm2 and 75.9 Ω·cm2 and 74.25 Ω·cm2; increased TEER values in the triple co-culture BBB model, effect of inhibitor ([10]; day 6, 3 μM SPP-86 or 5 μM PP2): completely reversed; GDNF-induced claudin-5 expression (claudin-5; [12]): markedly attenuated; also recorded: significantly suppressed; US-CM-induced claudin-5 expression (claudin-5; [13]): markedly attenuated; also recorded: markedly reversed; GDNF-induced VE-cadherin expression (VE-cadherin; [12]): markedly attenuated; also recorded: significantly suppressed; US-CM-induced VE-cadherin expression (VE-cadherin; [13]): markedly attenuated; also recorded: markedly reversed; decreased permeability of fluorescein and FITC-Dex in the triple co-culture BBB model, effect of inhibitor ([7]; 3 μM SPP-86 or 5 μM PP2): completely reversed; GDNF-decreased permeability of fluorescein and FITC-Dex, effect of inhibitor ([8]; hCMEC/D3 mono-culture, 200 pg/ml GDNF, 3 μM SPP-86 or 5 μM PP2): almost abolished
